The results in this text go back to patent US10913757B2, “Hydroxycinnamic derivatives, methods and uses thereof” (UNIVERSIDADE DO PORTO, priority 2016, dated 2021).

Entries after “also recorded” stand apart in the source; their conditions may differ.

Assay type in all cases: cell-based, human
The subject of series [1] is HepG2 cells. Kind of series: Cytotoxicity screening in HepG2 cells, SRB assay. Particulars: HepG2, 48 hour. How it is done: In an embodiment, and as an example, the cytotoxicity of two AntiOxCINs (AntiOxCIN4 and AntiOxCIN6) was assessed using monolayer cultures of human hepatocytes from hepatocellular carcinoma (HepG2) and SRB method (FIG. 8A). […] Remarkably, at concentrations higher than 2.5 μM AntiOxCIN6 inhibited cell proliferation, while at concentrations higher than 100 μM AntiOxCIN4 stimulated cell proliferation.
(§1) In an embodiment, the cytotoxicity profile of AntiOxCIN4 and AntiOxCIN6 was evaluated in human hepatocellular carcinoma HepG2 cells. Human hepatocellular carcinoma HepG2 cells were cultured in high-glucose medium composed by Dulbecco's modified Eagle's medium (DMEM; D5648) supplemented with sodium pyruvate (0.11 g/L), sodium bicarbonate (1.8 g/L) and 10% fetal bovine serum (FBS) and 1% of antibiotic penicillin-streptomycin 100× solution. Cells were maintained at 37° C. in a humidified incubator with 5% CO2. HepG2 cells were seeded at density of 4×10^4 cells/mL and grown for 24 hours before treatment.
In an embodiment the cytotoxicity screening was performed as follows: cells were placed on 48-well plate (2×10^4 cells/500 μL) and then were incubated during 48 hour with AntiOxCIN4 and AntiOxCIN6 concentrations ranging 25 μM to 500 μM or 0.5 μM to 25 μM, respectively. After incubation, sulforhodamine B (SRB) assay was used for cell density determination based on the measurement of cellular protein content. Briefly, after incubation, the medium was removed and wells rinsed with PBS (1×). Cells were fixed by adding 1% acetic acid in 100% methanol for at least 2 hours at −20° C. Later, the fixation solution was discarded and the plates were dried in an oven at 37° C. […] Finally, 200 μl of each supernatant was transferred in 96-well plates and optical density was measured at 540 nm. Data are means±SEM of four independent experiments and the results are expressed as percentage of control (control=100%), which represents the cell density without any treatment in the respective time point.

Series [2] has as its system HepG2 cells. The series can be described thus: Cellular antioxidant screening in HepG2 cells (FeSO4 or H2O2), SRB assay. Particulars: pre-incubated 1 hour, AntiOxCIN4 100 μM, AntiOxCIN6 2.5 μM; for prevention of iron-induced HepG2 cytotoxicity (cell proliferation): 250 μM FeSO4 48 h; for prevention of hydrogen peroxide-induced HepG2 cytotoxicity (cell proliferation): 250 μM H2O2 48 h. How it is done: In an embodiment, as an example, the antioxidant cellular outline of AntiOxCIN4 and AntiOxCIN6 was assessed using monolayer cultures of human hepatocytes from hepatocellular carcinoma (HepG2) and two different oxidative stressors (250 μM FeSO4 or 250 μM H2O2) (FIG. 8B). […] The higher efficacy of AntiOxCIN4 is in agreement with the data attained from TAC assays (Table 1) and RLM assays (FIG. 4).
as §1
In an embodiment, the cellular antioxidant screening was performed as follows: cells were placed on 48-well plate (2×10^4 cells/500 μL) and pre-incubated with non-toxic concentrations of AntiOxCIN4 (100 μM) or AntiOxCIN6 (2.5 μM) for 1 hour. After the incubation time, cells were exposed to oxidative stress conditions by the addition of 250 μM FeSO4 or 250 μM H2O2 for 48 hours. At the end of incubation time, SRB assay was used for cell density determination as previously described. Data are means±SEM of four independent experiments. The results are expressed as percentage of control (control=100%), which represents the cell density without any treatment in the respective time point.

Series [3] has as its system HepG2 cells. Kind of series: Morphological alterations in HepG2 cells, vital epifluorescence microscopy (TMRM, Hoechst 33342). The note with it: HepG2, 48 h; AntiOxCIN4 100 μM, AntiOxCIN6 2.5 μM, FIG. 8C; methanesulfonate. How it is done: In an embodiment, as an example, the morphological changes in mitochondrial network and nuclei chromatin condensation of AntiOxCIN4 and AntiOxCIN6 have been determined. HepG2 cells were treated with AntiOxCINs for 48 h and then incubated with the mitochondrialΔΨ-dependent fluorescent probes TMRM and DNA dye Hoechst 33342.
In an embodiment, the detection of morphological alterations, including chromatin condensation and mitochondrial polarization and distribution by vital epifluorescence microscopy was performed as follows: cells were placed in 6-well plates with a glass coverslip per well (8×10^4 cells/2 mL) and then treated with non-toxic concentrations of AntiOxCIN4 or AntiOxCIN6 for 48 hours. Thirty minutes prior the end of the incubation time, the mitochondrial network was stained with TMRM (100 nM) while nuclei were stained with Hoechst 33342 (1 μg/mL), to detect apoptotic chromatin condensation, in HBSS (NaCl 137 mM, KCl 5.4 mM, NaHCO3 4.2 mM, Na2HPO4 0.3 mM, KH2PO4 0.4 mM, CaCl2 1.3 mM, MgCl2 0.5 mM, MgSO4 0.6 mM, and D-glucose 5.6 mM, pH 7.4) at 37° C. under dark conditions. Glass coverslips were removed from the wells and placed on glass slides with a drop of mounting medium. The cell images were acquired using a Zeiss LSM 510Meta microscope and analysed with ImageJ software 1.49v. […]

In the case of `CS(=O)(=O)[O-].O=C(/C=C/c1ccc(O)c(O)c1)NCCCCCCCCCC[P+](c1ccccc1)(c1ccccc1)c1ccccc1` [AntiOxCIN6, (E)-(10-(3-(3,4-dihydroxyphenyl)acrylamido)decyl)triphenylphosphonium methanesulfonate], the “toxicity toward HepG2 cells (comparison)” value in series [1] was “higher toxicity than AntiOxCIN4”. Further, the “concentration above which cell proliferation was inhibited” value in series [1] (FIG. 8A) is recorded as “higher than 2.5 μM”. In series [2], the “prevention of iron-induced HepG2 cytotoxicity (cell proliferation)” value is “significantly prevented” and the “prevention of hydrogen peroxide-induced HepG2 cytotoxicity (cell proliferation)” value is recorded as “significantly prevented”. In addition, the “nuclear morphology and mitochondrial polarization” value in series [3] was “did not induce nuclear morphological changes neither mitochondrial depolarization; also recorded: did not disturb the normal nuclear morphology and mitochondrial polarization”.

With `CS(=O)(=O)[O-].O=C(/C=C/c1cc(O)c(O)c(O)c1)NCCCCCC[P+](c1ccccc1)(c1ccccc1)c1ccccc1` [AntiOxCIN4, (E)-(6-(3-(3,4,5-trihydroxyphenyl)prop-2-enamido)hexyl)triphenylphosphonium methanesulfonate], the “concentration above which cell proliferation was stimulated” value in series [1] (FIG. 8A) is recorded as “higher than 100 μM”. In addition, in series [2], the “prevention of iron-induced HepG2 cytotoxicity (cell proliferation)” value is listed as “significantly prevented” and the “prevention of hydrogen peroxide-induced HepG2 cytotoxicity (cell proliferation)” value is reported as “significantly prevented”. Moreover, in series [3], the “nuclear morphology and mitochondrial polarization” value was “did not induce nuclear morphological changes neither mitochondrial depolarization; also recorded: did not disturb the normal nuclear morphology and mitochondrial polarization”.
